Assay results reported in patent US11285142B2, “Compositions and methods for identifying and treating dystonia disorders” (DUKE UNIVERSITY, priority 2015, dated 2022).

Legend:
[1] = tested on: WT Torsin1a localization in Flp-In T-REx 293 cells expressing EGFP-WT Torsin1a; test: Torsin1a localization assay in WT Torsin1a-expressing assay cell line; format: cell-based, human; conditions: WT Torsin1a-expressing cell line, dose response
From the text: To develop an assay capable of detecting conditions that correct a dystonia cellular phenotype, two human cell lines were generated that stably expressed EGFP-tagged human wild-type Torsin 1A, or delta-E Torsin1a, from a single cDNA copy integrated at a defined genomic site (FIG. 1, panel 1).
To limit variation in expression levels associated with random integration or transient expression, single copies of either WT or delta-E human TOR1A cDNAs with N-terminal EGFP fusions were inserted at the FRT site in Flp-In™ T-Rex™ 293 cells (Thermo Fisher Scientific #R780-07) via flippase recombinase-mediated cassette exchange according to the manufacturer's recommended protocols. This system includes an inducible expression feature (TetON) that avoids selective pressure for potential toxic effects of chronic expression of mutant proteins (FIG. 1, panel 1). […]
This approach provides control over expression levels, avoiding the wide variation typically seen with random genomic integration or transient expression approaches. […] The mutant phenotype was measured as the percentage of cells with one or more EGFP puncta using automated high-content imaging analysis (see infra).
Development and validation of the high-content image analysis and assay performance under high-throughput screening conditions is presented in FIG. 9. […] Automated exposure times for each plate were determined by setting a target saturation of 25% in channel 1 in wells containing tetracycline-induced delta-E cells. Detected cells were gated according to nuclear area, length-to-width ratio, and perimeter-to-area ratio. […] EGFP fluorescence (Ch2: excitation 488 nm; emission 509 nm) was used for puncta detection. Automated exposure times for each plate were determined by setting a target saturation of 35% in channel 2 in wells containing induced delta-E cells. […]

[2] = tested on: cortico-striatal synapse LTD (striatal projection neurons); test: Long-term depression at the cortico-striatal synapse, whole-cell electrophysiology in acute brain slices; format: cell-based, mouse
Method: To directly test these predictions, whole-cell electrophysiology of striatal projection neurons was performed in acute brain slices to induce long-term depression in the presence of eIF2-alpha pathway-modulating drugs. Acute horizontal brain slices from the progeny of heterozygous ΔE Torsin1a knockin×homozygous Drd1a-tdTomato mice (age P15-21) were prepared largely as described in (Trusel et al., 2015, Cell Rep. 13, 1353-65). LTD was induced as in Trusel et al., 2015, with modifications.
Heterozygous delGAG Torsin1a knockin mice (courtesy of Dr. W. Dauer, University of Michigan) were crossed with homozygous Drd1a-tdTomato mice (Jackson Labs) and the progeny was used at postnatal day 15-21 for experiments. […]
Single slices were transferred to a recording chamber and superfused continuously with ACSF containing 50 μM picrotoxin at 32° C. and 3-4 mL/min. […] Evoked excitatory postsynaptic potentials (EPSPs) were recorded in the dorsolateral striatum, while stimulating every 30 seconds with a concentric bipolar electrode (FHC) in cortical layer V (see Trusel et al., Cell Reports, 2015). […] Baseline EPSPs were recorded for at least 10 min or until a stable baseline was reached. Data were acquired by pClamp v10 and analyzed using Clampfit v10.4, Origin v8.0, and GraphPad Prism v6.

SMILES | effect on WT Torsin1a localization (cells with punctate Torsin1a, in words) [1] | LTD in WT brain slices ([2]; pre-incubation 5 nM, WT mice) | long-term depression in brain slices of mice heterozygous for DYT1 knockin mutation (delGAG) ([2]; 20 μM, vs vehicle-treated slices)
O=C(COc1ccc(Cl)cc1)NC1CCC(NC(=O)COc2ccc(Cl)cc2)CC1 (stereo not drawn) [ISRIB] | dose-dependent increase | robustly inhibited LTD | 
O=C(/C=C/c1ccccc1)NC(NC(=S)Nc1ccc(Cl)cc1)C(Cl)(Cl)Cl (stereo not drawn) [Sal-003] |  |  | restored long-term depression
